# Results: US9757473B2, “Cell-penetrating peptide and conjugate comprising same” (GEMVAX & KAEL CO., LTD., priority 2013, dated 2017)
# Residues, ends and D or L forms follow the SMILES beside them. No end group written: not given here.
# Key:
# Format in all cases: cell-based
# [1] = tested on: normal cell DPSC (Dental Pulp Stem Cell); assay: Dose-dependent cell apoptosis by MTT assay, normal cells (Example 5)
# Method: (§1) The cell line was made by the cells and the cell cultivation method described in example 2 as same.
# (§2) After culturing the cancer cells and normal cells at 96 well-plate in 30-40% level 24-hours in advance by pre-seeding, treating with each reagent, and pre-evaluating killing ability by analyzing cell shape through microscope at 24 hours/48 hours/72 hours after, the quantitative analysis was done by MTT (3-(4,5-dimethylthiazol-2-yl)-2,5-diphenyltetrazolium bromide, a yellow tetrazole) assay which measures OD (optical density) values at 72 hours after.
# [2] = tested on: head and neck cancer cells; assay: Dose-dependent cell apoptosis by MTT assay, cancer cell lines (Example 5); details: MTT at 72 hours
# Method: as §1, §2
# [3] = tested on: HN5 and OSC19 head and neck cancer cells; assay: Intracellular trafficking (cell penetrability) by flow cytometry (FACS); details: 10 uM, 2.5 hours
# Method: (§3) In order to analysis of intracellular trafficking, Korean head and neck cancer cells (SNU-1041, SNU-1076), head and neck cancer cells founded by MD Anderson cancer center (OSC19, HN5), and normal cells DPSC (Dental Pulp Stem Cell) were used. The cell lines was maintained in good condition by seeding each cells to 100 cm2-culture dishes with RPMI-1640 or DMEM culture-media, 10% FBS and antibiotic-antimycotic antibiotics and culturing in incubator (37° C., 5% CO2). The condition of cells was maintained in good condition by checking the speed and conditions of cells and sub-culturing cells per 2-5 days.
# [4] = tested on: head and neck cancer cells; assay: as above; details: 10 uM, 2.5 hours
# Method: as §3
# [5] = tested on: SNU-1041 and SNU-1076 head and neck cancer cells; assay: as above; details: SNU-1041 and SNU-1076 cells, 10 uM, 2.5 hours, FIG. 2
# Method: In order to analysis of intracellular trafficking, Korean head and neck cancer cells (SNU-1041, SNU-1076), head and neck cancer cells founded by MD Anderson cancer center (OSC19, HN5), and normal cells DPSC (Dental Pulp Stem Cell) were used.
# The cell lines was maintained in good condition by seeding each cells to 100 cm2-culture dishes with RPMI-1640 or DMEM culture-media, 10% FBS and antibiotic-antimycotic antibiotics and culturing in incubator (37° C., 5% CO2). The condition of cells was maintained in good condition by checking the speed and conditions of cells and sub-culturing cells per 2-5 days.
# After culturing the cells with prepared cancer cells in 6 well-plate at 60-70% level 24-hours in advance, treating FITC (10 uM), pep1-FITC (10 uM), FITC-TAT (10 uM) separately, eliminating the culture media 2.5 hours later, washing with saline, and separating cells by treating Trypsin-EDTA enzyme to prepare each tube of 10^6 cells/ml, the cells was analyzed by FACS.
compound,measurement,setting,value
Cc1ccc(S(=O)(=O)OCC(=O)Nc2ccc(C(=O)O)c(O)c2)cc1 [NSC 74859],concentration at which cell apoptosis of normal cells was shown,"[1]; MTT at 72 hours, FIG. 4",200 µM
same,concentration till which normal cells were not killed,"[1]; MTT at 72 hours, FIG. 4",100 µM
same,concentration from which killing / apoptosis of cancer cells started,"[2]; FIG. 4, FIG. 5",50 µM
same,concentration killing almost the whole cancer cells,"[2]; FIG. 4, FIG. 5",200 µM
CSCC[C@H](NC(=O)[C@H](CC(N)=O)NC(=O)[C@H](CCCNC(=N)N)NC(=O)CNC(=O)[C@H](C)NC(=O)[C@H](CCCCN)NC(=O)[C@H](Cc1ccccc1)NC(=O)CNC(=O)[C@H](CCCNC(=N)N)NC(=O)[C@H](CC(N)=O)NC(=O)c1ccc(NC(=O)COS(=O)(=O)c2ccc(C)cc2)cc1O)C(=O)N[C@@H](CCCNC(=N)N)C(=O)N[C@@H](CCCNC(=N)N)C(=O)N[C@@H](CCCCN)C(=O)N[C@@H](CC(C)C)C(=O)N[C@@H](Cc1ccccc1)C(=O)NCC(=O)N[C@H](C(=O)N[C@@H](CC(C)C)C(=O)N[C@@H](CCCNC(=N)N)C(=O)N[C@@H](CC(C)C)C(=O)O)C(C)C [pep98-NSC 74859] (HELM PEPTIDE1{[Cc1ccc(S(=O)(=O)OCC(=O)[*:2])cc1].[O=C(c1ccc(N[*:1])cc1O)[*:2]].N.R.G.F.K.A.G.R.N.M.R.R.K.L.F.G.V.L.R.L}$$$$V2.0),killing of normal cells (in words),"[1]; at the concentration that killed almost the whole cancer cells, FIG. 5",did not kill normal cell DPSC
NRGFKAGRNMRRKLFGVLRL [pep98],proliferation of cancer cells (cytotoxicity),"[2]; treated alone, FIG. 3",not significantly decreased
"pep1-FITC (EARPALLTSRLRFIPK; also: FITC label, site not given here; UniProt O14746 611-626, looked up, fragment)",cell penetrability (in words),[3],lower cell penetrability
same,cell penetrability compared with FITC only,[4],improved cell penetrability than the FITC only
"pep 1: pep 1 (consists of 16 amino acids) derived from telomerase, used for comparison (EARPALLTSRLRFIPK; UniProt O14746 611-626, looked up, fragment)",cell penetrability (in words),[5],high cell penetrability
